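How tested: cells in 96-well plates exposed to compound for 48 hours at five concentrations. GI50: concentration for 50% inhibition of growth. TGI marks complete inhibition of growth.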
Tests used:
Assay in all cases: NCI anticancer screen, dose series, 48 h
DLD-1 colon = test system: DLD-1 colon
HOP-18 NSCLC = test system: HOP-18 NSCLC
RXF-631 renal = test system: RXF-631 renal
KM20L2 colon = test system: KM20L2 colon
XF 498 CNS = test system: XF 498 CNS
DMS 273 small cell lung = test system: DMS 273 small cell lung
M19-MEL melanoma = test system: M19-MEL melanoma
LXFL 529 NSCLC = test system: LXFL 529 NSCLC
MDA-N = test system: MDA-N

Structure (SMILES) | TGI (DLD-1 colon) [µM] | TGI (HOP-18 NSCLC) [µM] | TGI (KM20L2 colon) [µM] | TGI (XF 498 CNS) [µM] | TGI (DMS 273 small cell lung) [µM] | TGI (M19-MEL melanoma) [µM] | TGI (LXFL 529 NSCLC) [µM] | TGI (MDA-N) [µM] | also measured
COC/C=C\COC | > 100 | > 100 | > 100 | > 100 | > 100 | > 100 | > 100 | – | TGI (RXF-631 renal): > 100 µM
C=C(CC(NC(=O)c1ccc(C(CC)Cc2cnc3nc(N)nc(N)c3n2)cc1)C(=O)O)C(=O)O (configuration not stated) | > 100 | – | > 100 | – | > 100 | – | > 100 | – | –
CCC[CH2][Sn]([Cl])([Cl])[CH2]CCC | 1.99 | 2.56 | 3.01 | 1.44 | 3.73 | 2.21 | 0.474 | – | GI50 (DLD-1 colon): 0.649 µM; GI50 (HOP-18 NSCLC): 1.29 µM; GI50 (KM20L2 colon): 1.49 µM; GI50 (XF 498 CNS): 0.534 µM; GI50 (DMS 273 small cell lung): 1.29 µM; GI50 (LXFL 529 NSCLC): 0.138 µM
Cc1ccc(NC(=O)CCc2nc(N)nc(N)c2-c2ccccc2)cc1C | > 100 | > 100 | > 100 | > 100 | > 100 | > 100 | > 100 | – | TGI (RXF-631 renal): > 100 µM
COc1ccc(OC)c(NC(=O)CCC/C(CC(=O)c2ccc(O)c(OC)c2)=N\Nc2nnc(C)n2N)c1 | > 100 | > 100 | > 100 | > 100 | > 100 | > 100 | > 100 | – | –
C=CCNc1nc2c(s1)C(=O)c1ccccc1C2=O | – | 23.1 | 33.5 | 34.8 | 28.2 | 3.22 | 24.2 | 3.28 | –
COC(=O)C1C(O)CCC2CN3CCc4c([nH]c5ccccc45)C3CC21 (configuration not stated) | – | – | – | – | – | – | – | > 100 | –
CC(C)(C)c1cc(C(O)(C(F)(F)F)C(F)(F)F)c2c(c1)C(C(F)(F)F)(C(F)(F)F)OC(C)(C(C)(C)C)N2 (configuration not stated) | > 100 | – | > 100 | 4.25 | 10.8 | 9.73 | 14.1 | – | –
CC[n+]1oc(C(=O)c2ccc(Cl)cc2)c(-c2ccccc2)c1-c1ccccc1.[Cl][Fe]([Cl])([Cl])[Cl] | – | – | – | – | – | – | – | > 100 | GI50 (MDA-N): 28.7 µM
Cc1[nH]nc(C(F)(F)F)c1N=NN(C)C | – | – | – | – | – | – | – | > 100 | –
CCc1ccc(NC(=O)NC(=O)c2ccccc2[N+](=O)[O-])cc1Oc1ncc(Cl)cn1 | > 100 | > 100 | 0.0481 | – | – | > 100 | > 100 | – | –
CCOC(=O)C(=O)Nc1ccccc1C | > 100 | – | > 100 | 87.9 | – | > 100 | > 100 | – | TGI (RXF-631 renal): > 100 µM
CCOC(=O)c1cc2cc3c4c(c2oc1=O)CCCN4CCC3 | – | – | – | – | – | – | – | > 100 | –
NCCSSCCN | > 100 | > 100 | > 100 | > 100 | > 100 | > 100 | > 100 | > 100 | TGI (RXF-631 renal): > 100 µM
O=C1c2ccccc2-[n+]2ccc3c([nH]c4ccccc43)c21 | – | – | – | – | – | – | – | 0.318 | –
CC(Oc1ccc2c(-c3ccccc3)cc(=O)oc2c1)C(=O)O (configuration not stated) | > 100 | > 100 | > 100 | > 100 | – | > 100 | > 100 | – | –
O=C(Cc1nc2ccccc2c(=O)n1-c1ccccc1Cl)c1ccncc1 | > 100 | > 100 | > 100 | – | > 100 | > 100 | > 100 | – | TGI (RXF-631 renal): > 100 µM
CCC(=O)c1c(NOC2OCC(OC(C)=O)C(OC(C)=O)C2OC(C)=O)nc(OC)n(C)c1=O (configuration not stated) | > 100 | – | > 100 | > 100 | > 100 | > 100 | > 100 | – | –
COc1ccc(NC(=O)CC2SC(=Nc3ccccc3C)NC2=O)c([N+](=O)[O-])c1 (configuration not stated) | > 100 | – | > 100 | > 100 | > 100 | > 100 | > 100 | – | –
COc1ccc(NC(=O)/C(=C/c2ccccc2)C(C)=O)cc1 | 28.7 | 28.2 | 29.2 | 30.6 | 30.8 | 29.9 | 24.9 | – | TGI (RXF-631 renal): 31.2 µM
COC(=O)/C=C(C)/C=C/C1OC(C)OCC1O (configuration not stated) | > 100 | – | > 100 | – | > 100 | > 100 | > 100 | – | –

Reference: PubChem BioAssay (NCI)
